Assay results taken from patent US10106627B2, “Process for the preparation of polymeric biosurfactants” (priority 2014, dated 2018).

Tested on: IL-6 in RAW 264.7 cells
Assay: LPS-induced IL-6 ELISA in RAW 264.7 cells
Assay type: cell-based, mouse
Conditions: 50 μg ml^−1; LPS 100 ng ml^−1 24 h; LPS alone 190.9
Description: The effect of Brevisan, Microsan and M-EPS-Au-NP on the release of proinflammatory cytokines, TNF-α and IL-6, was measured using ELISA kits (Biosource International, Camarillo, Calif., USA). In independent experiments, the RAW-264.7 cells were treated with different concentrations (1, 10, 50 and 100 μg ml^−1) of Brevisan, Microsan and M-EPS-Au-NP and then stimulated with 100 ng ml^−1 of LPS. The supernatants were harvested after 24 h and the concentrations of TNF-α and IL-6 was measured using an ELISA kit according to the manufacturer's instructions.

## β-D-glucuronyl-(1-2)-D-mannosyl-(1-4)-D-glucose [Microsan]
  IL-6 production after treatment: 90.01 µg/mL
